Reference: patent US8138374B2, “Composition for external application to skin” (Shiseido Company, Ltd., priority 2007, dated 2012)

Experiment: Solubility evaluation (appearance and solubility)
Format: physicochemical
Conditions: for Solubility (%) Ethanol / Appearance (Room Temperature) / Solubility (%) Water: room temperature; for Solubility (%) Ethanol / Solubility (%) Water: judged by appearance, ">" = concentration at which dissolution was confirmed, actual solubility greater than or equal
Procedure: Furthermore, dissolution was evaluated based on appearance after preparing a solution at room temperature. The solubilities shown in the table indicate the concentration at which dissolution was confirmed, and those results shown with a “>” symbol in the table indicate the concentration at which the substance was confirmed to dissolve, and actual solubility is greater than or equal to this concentration.

Row | Solubility (%) Ethanol (ethanol) [%] | Appearance (Room Temperature) | Solubility (%) Water (water) [%] | solubility in ethanol (in words) (ethanol) | solubility in water (in words) (water) | Compound
1 | >14.1 | White crystal | >77 |  |  | CNCC(=O)N(C)C.Cl [N,N-dimethyl-2-(methylamino)acetoamide hydrochloride]
2 | >58 | Liquid | >55 |  |  | CNCC(=O)N(C)C [N,N-dimethyl-2-(methylamino)acetoamide]
3 | 0.10 |  | 71.5 | poorly soluble | high solubility | CNCC(=O)O [Sarcosine, reference compound]
